Assay: Linear sweep voltammetry with rotating disc electrode, inhibitors in electrolyte solution
Conditions: 10 ppm inhibitor solution in 5% NaCl-PBS pH 7; copper rotating disc electrode 1000 rpm; LSV
Procedure: Linear sweep voltammetry (LSV) and chronoamperometry were used to evaluate the performance of the thio-containing corrosion inhibitors as electroactive cathodic-thio compounds. The LSV experiments were performed with a rotating disc electrode (RDE). The rotating disc electrode technique provides certain benefits in measurement sensitivity because the technique indicates current at steady state with a kinetic flow over the electrode rather than a static measurement in solution (FIG. 1).
Inhibitor performance was measured based on the ability of the compound to prevent the oxygen reduction reaction in electrolyte using a rotating disc electrode. If current values were closer to zero then the inhibitor was considered to be appropriate because the oxygen reduction reaction, which is an indication of corrosion, was sequestered or stopped. Solutions of known concentration (e.g., containing 10 ppm inhibitor) were used to compared inhibitors. Inhibitor efficiency (IE), is calculated using Equation 1 (IE corrects for contributions not attributable to the inhibitor (e.g., electrolyte)).
Inhibitor Efficiency=(iinhibitor−iblank)/iblank (Equation 1)
Performance of different inhibitors (10 ppm solutions) was evaluated by measuring current value (A) at −800 mV and determining inhibitor efficiency, the results of which are shown in Table 5.
A 5% (wt/wt) sodium chloride solution (that is, electrolyte system A of Table 7) was selected to simulate a highly corrosive environment and potentially accelerate the corrosion. The electrolyte was buffered to eliminate changes in pH from effecting inhibitor performance measurements. A pH of 7 was selected because it was similar to seawater.
The 5% (wt/wt) (0.9 M) sodium chloride electrolyte solution was generated by adding reagent grade sodium chloride to <18 M·cm resistivity to deionized water (52.6 gm NaCl to 1 liter water). The solution was then buffered to neutral pH 7 with phosphate buffered saline tablets from Sigma Aldrich-(P4417-100TAB), 1 tablet per 200 ml of solution Inhibitors were dissolved in an 5% sodium chloride electrolyte buffered with phosphate buffered saline to maintain the pH at 7. Ten parts per million (10 ppm) solutions were generated by taking an aliquot of solutions with a higher known inhibitor concentration and diluting to make a 10 ppm solution. In most cases the higher concentration target was 50 ppm. The initial solutions were generated by adding 0.050 gm of inhibitor in a 5% NaCl buffered electrolyte in a one liter volumetric flask. Not all of the inhibitor dissolved, so the solution was filtered to calculate the solubility and the actual concentration. The solutions were stirred overnight with a stir bar and then filtered using a pre-weighed, 4.7 cm diameter, 1.0 micron pore size glass fiber filters (Whatman Grade GF/B 1821-047) and a Millipore glass filter funnel. The glass filter and clamp funnel was an improvement to previous filter methods that utilized a Buchner funnel and paper filters. After the filtrate was collected, the funnel and filter paper were rinsed thoroughly with deionized water to ensure that no electrolyte salts were trapped in the filter and that residual solids on the sides of the filter funnel were collected. The filter with solids was dried over night in an approximately 120° C. oven, allowed to come to room temperature in a desiccator, and weighed. The actual solution concentration was calculated based on the actual inhibitor dissolved. Concentration calculations also accounted for residual salts that are sometimes still present in the filter. These were measured by running a blank. An aliquot was taken of the 50 ppm solution and a final 10 ppm solution generated. […]
With N1=C2SSc3nnc(s3)SSC(=N1)S2 [BDTD, Bis-[2,5-dithio-1,3,4-thiadiazole]] the “Current (A) @ −800 mV” value was −3.00 × 10^−4 A. With “[Al:2,5-dimercapto-1,3,4-thiadiazole (3:1)] [3:1 AlDMcT]” the “Current (A) @ −800 mV” value was −2.59 × 10^−4 A. For Sc1nnc(SSc2nnc(S)s2)s1 [Vanlube 829, 5,5′-Dithiobis(1,3,4-Thiadiazole-2(3H)-thione)], the “Current (A) @ −800 mV” value was −2.68 × 10^−4 A. With Sc1nnc([S][Al]([S]c2nnc(S)s2)[S]c2nnc(S)s2)s1 [1:3AlDMcT (acid), [Al:2,5-dimercapto-1,3,4-thiadiazole (1:3)] (acid)] the “Current (A) @ −800 mV” value was −2.83 × 10^−4 A. In the case of Sc1nnc([S][Al]([S]c2nnc(S)s2)[S]c2nnc(S)s2)s1 [1:3AlDMcT, [Al:2,5-dimercapto-1,3,4-thiadiazole (1:3)]], the “Current (A) @ −800 mV” value is reported as −2.25 × 10^−4 A. With Sc1nsc(S)n1 [1,2,4 DMcT, 1,2,4-Thiadiazole-3,5-dithiol] the “Current (A) @ −800 mV” value was −1.53 × 10^−4 A.

Same assay, conditions: 10 ppm inhibitor solution; from current at -800 mV versus blank
With N1=C2SSc3nnc(s3)SSC(=N1)S2 [BDTD, Bis-[2,5-dithio-1,3,4-thiadiazole]] the “IE (inhibitor efficiency, Equation 1)” value was 0.40. With “[Al:2,5-dimercapto-1,3,4-thiadiazole (3:1)] [3:1 AlDMcT]” the “IE (inhibitor efficiency, Equation 1)” value was 0.49. For Sc1nnc(SSc2nnc(S)s2)s1 [Vanlube 829, 5,5′-Dithiobis(1,3,4-Thiadiazole-2(3H)-thione)], the “IE (inhibitor efficiency, Equation 1)” value was 0.47. For Sc1nnc([S][Al]([S]c2nnc(S)s2)[S]c2nnc(S)s2)s1 [1:3AlDMcT (acid), [Al:2,5-dimercapto-1,3,4-thiadiazole (1:3)] (acid)], the “IE (inhibitor efficiency, Equation 1)” value was 0.44. For Sc1nnc([S][Al]([S]c2nnc(S)s2)[S]c2nnc(S)s2)s1 [1:3AlDMcT, [Al:2,5-dimercapto-1,3,4-thiadiazole (1:3)]], the “IE (inhibitor efficiency, Equation 1)” value was 0.55. In the case of Sc1nsc(S)n1 [1,2,4 DMcT, 1,2,4-Thiadiazole-3,5-dithiol], the “IE (inhibitor efficiency, Equation 1)” value is reported as 0.70.

From patent publication US20160168724A1, “POLYVINYLBUTYRAL COATING CONTAINING THIOL CORROSION INHIBITORS” (The Boeing Company, priority 2014, published 2016)
